Data set [1] can be described thus: GABA–CTP BBB penetration experiment: GABA in plasma of mice by LC–MS. It counts as in vivo, mice (Kunming). The conditions noted are these: male mice, one bolus intravenous injection via tail vein (GABA 50 mg/kg, GABA–CPP 10 mg/kg).
A further data set relates to mice. Briefly: Behavior of the mice after injection. It counts as in vivo, mice (Kunming). The conditions noted are these: intravenous injection, GABA 50 mg/kg or GABA–CPP 10 mg/kg, symptom with GABA–CPP appeared a bit worse.

With `NCCCC(=O)O` [GABA, γ-aminobutyric acid], in data set [1], the “GABA concentration in plasma within 2 min after injection” value was 7985 ng/mL and the “GABA concentration in plasma within 1 h after injection” value was 141 ng/mL. Besides, in the data set with mice, the “behavior of the mice after injection” value is “quiet and sleepy behavior”.

The record behind these values is PMC6044556 (ACS Omega, 2017).
